Experimental data: patent US8338565B2, “Macrocyclic compounds for inhibition of tumor necrosis factor alpha” (Ensemble Therapeutics Corporation, priority 2008, dated 2012)
Where two headings read alike, the source gives them in different places. Numbered stars: 1 amine (or outer) side, 2 acyl side, 3 side chain; on linkers, the order of the positions; unused ones are H or OH. Bridge positions count the residues as written; N and C are the ends. Square brackets hold non-standard residues; d marks the D form. Peptide text beside a SMILES is read from it. Phe(4-(4-pyridyl)) = N[C@@H](Cc1ccc(-c2ccncc2)cc1)C(=O)O; Bip = N[C@@H](Cc1ccc(-c2ccccc2)cc1)C(=O)O; Phe(4-NH2) = Nc1ccc(C[C@H](N)C(=O)O)cc1; d(hPhe) = N[C@H](CCc1ccccc1)C(=O)O; d2Thi = N[C@H](Cc1cccs1)C(=O)O; Suc = O=C(CCC(=O)[*:2])[*:1]

Tests used:
[1] = tested on: TNF-α (degradation of IkB in HeLa cells or A431 cells); assay: Human cell-based assay: inhibition of TNF-α induced degradation of IkB; conditions: for inhibition at 5 µM: read-out: Inhibition at Various Compound Concentrations, 5 μM; for inhibition at 10 µM: read-out: Inhibition at Various Compound Concentrations, 10 μM
rat paw edema model [2] = assay: Rat paw edema model (carrageenan), anti-inflammatory activity; assay type: in vivo, Sprague-Dawley (SD) rats
Protocol: Compounds 3, 4, 10 and 202 were tested in a rat paw edema model to determine anti-inflammatory activity. Seven groups (one for Vehicle A [15 mL PEG400, 3 mL Graves Grain alcohol (190 proof), 1.8 mL dimethylacetamide and 10.2 mL deionized water] alone as a negative control, one for Vehicle B [0.1M NaHCO3] alone as a negative control, one for each of the four test compounds dissolved in Vehicle A, and one for indomethacin dissolved in Vehicle B as a positive control), each group containing six Sprague-Dawley (SD) rats (180-200 g) randomized by weight. Initial paw volumes were measured by placing the right hind limb of the rat up to the top of the hock in a beaker of water sitting on a scale that had been tared to zero and recording the readout.
Rats were pre-treated with either i) one of the test compounds, or ii) a positive or negative control. Vehicle A alone and test compound dissolved in Vehicle A (Compound 3-1.0 mg/kg; Compound 4-0.4 mg/kg; Compound 10-0.5 mg/kg; Compound 202-0.3 mg/kg) were administered by intravenous injection. Vehicle B alone and indomethacin (5 mg/kg in 0.1M NaHCO3) was administered by intraperitoneal injection. Thirty minutes after this pretreatment, rats were anesthetized and injected with 0.1 mL of carrageenan (10 mg/mL in water) in the subplantar region of the right hind foot using a ½ inch 26 gauge needle attached to a 1 cc syringe.
At 2, 4 and 6 hours post-carrageenan injection, the right hind foot of each rat was measured for paw volume as described above.
We next investigated the effect of varying intravenous doses of Compound 202 (0.05, 0.10, 0.30, and 1.00 mg/kg) in the same model using the same protocol (6 rats per group). […] We also investigated the affect of oral dosing (10 mg/kg) of Compound 202 in the same model. For oral dosing, a 2.5 mg/mL suspension of Compound 202 was prepared in Vehicle A. Rats were orally administered 4 mL/kg of that suspension.

rat paw edema model [3] = assay: as above; assay type: in vivo, Sprague-Dawley (SD) rats; conditions: Table 8; 3 mg/kg PO; 4 h post-carrageenan
[4] = target: T1, TNFα / TNFα receptor (TNFα R1/Fc) (Homo sapiens, UniProt P01375); assay: Inhibition of binding of TNFα to the TNFα receptor (plate ELISA competition); conditions: Table 2
T1 construct: purchased R&D Systems
In short: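 Compound dilutions were preincubated 30 min at RT with 8.33 nM TNFα R1/Fc in PBST with 2% DMSO, then added to wells coated with 15 nM TNFα for 30 min. Bound receptor was detected with HRP anti-human Fc and TMB, read as A450.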

[5] = Table 5, 1 mg/kg IV, 2 h post-carrageenan
[6] = Table 5, 1 mg/kg IV, 4 h post-carrageenan
[7] = Table 5, 1 mg/kg IV, 6 h post-carrageenan
[8] = Activity (IC50, inhibition of TNFα binding to TNFα R1/Fc)
[9] = Table 6, 1 mg/kg IV, 2 h post-carrageenan
[10] = Table 6, 1 mg/kg IV, 4 h post-carrageenan
[11] = Table 6, 1 mg/kg IV, 6 h post-carrageenan
[12] = read-out: Activity (IC50, inhibition of TNFα binding to TNFα R1/Fc)
[13] = 5 μM compound, HeLa or A431 cells
[14] = 10 μM compound, HeLa or A431 cells
[15] = Table 4, 1 mg/kg IV, 2 h post-carrageenan
[16] = Table 4, 1 mg/kg IV, 4 h post-carrageenan
[17] = Table 4, 1 mg/kg IV, 6 h post-carrageenan

T1 sequence (P01375 77-233 limits assumed, species assumed): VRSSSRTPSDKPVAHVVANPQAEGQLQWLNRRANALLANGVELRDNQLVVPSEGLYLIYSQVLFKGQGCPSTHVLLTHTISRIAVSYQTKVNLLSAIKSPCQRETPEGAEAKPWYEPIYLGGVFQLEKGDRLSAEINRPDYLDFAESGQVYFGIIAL

Structure (SMILES)	inhibition at 5 µM [1]	inhibition at 10 µM [1]	Change in Paw Volume (rat paw edema model [2]; [5])	Change in Paw Volume (rat paw edema model [2]; [6])	Change in Paw Volume (rat paw edema model [2]; [7])	Change in Paw Volume (rat paw edema model [2]; Table 8, 3 mg/kg PO, 2 h post-carrageenan)	Change in Paw Volume (rat paw edema model [2]; Table 8, 3 mg/kg PO, 6 h post-carrageenan)	Change in Paw Volume (rat paw edema model [3])	IC50 [4, 8]	Change in Paw Volume (rat paw edema model [2]; [9])	Change in Paw Volume (rat paw edema model [2]; [10])	Change in Paw Volume (rat paw edema model [2]; [11])	IC50 [4, 12]	inhibition at 5 µM [1, 13]	inhibition at 10 µM [1, 14]	Change in Paw Volume (rat paw edema model [2]; [15])	Change in Paw Volume (rat paw edema model [2]; [16])	Change in Paw Volume (rat paw edema model [2]; [17])
O=C1COc2ccc(cc2)C[C@@H](C(=O)NCS(=O)(=O)O)NC(=O)[C@H](CCc2ccccc2)NC(=O)[C@@H](Cc2ccc(-c3ccccc3)cc2)NC(=O)[C@H](Cc2cccs2)N1 [Compound 482]	10 to 50%	10 to 50%	0.73 ± 0.19 mL	0.99 ± 0.34 mL	0.86 ± 0.27 mL	1.13 ± 0.15 mL	1.14 ± 0.10 mL	1.18 ± 0.10 mL	< 10 µM									
CC(C)(C)Oc1ccc(C[C@@H]2NC(=O)[C@@H](Cc3ccc(-c4ccccc4)cc3)NC(=O)[C@H](Cc3cccs3)NC(=O)COc3ccc(cc3)C[C@@H](C(=O)O)NC2=O)cc1 [Compound 346]	> 80%	50 to 80%								1.17 ± 0.06 mL	1.20 ± 0.09 mL	1.34 ± 0.09 mL	< 10 µM					
O=C1CCC(=O)N[C@H](Cc2cccs2)C(=O)N[C@@H](Cc2ccc(-c3ccccc3)cc2)C(=O)N[C@H](Cc2ccccc2)C(=O)N[C@H](C(=O)N[C@H](Cc2ccccc2)C(=O)O)Cc2ccc(cc2)N1 [Compound 33] ([d2Thi][Bip][dF][Phe(4-NH2)][dF]-OH; linker N-4 via Suc)													< 10 µM	10 to 50%	50 to 80%	1.10 ± 0.22 mL	1.49 ± 0.11 mL	1.46 ± 0.07 mL
O=C(O)[C@H](Cc1ccccc1)NC(=O)[C@@H]1Cc2ccc(cc2)NC(=O)[C@H](O)[C@@H](O)C(=O)N[C@H](Cc2cccs2)C(=O)N[C@@H](Cc2ccc(-c3ccncc3)cc2)C(=O)N[C@H](Cc2ccccc2)C(=O)N1 [Compound 442]			0.86 ± 0.15 mL	1.08 ± 0.16 mL	1.01 ± 0.14 mL								< 10 µM	10 to 50%	10 to 50%			
O=C1CCC(=O)N[C@H](CCc2ccccc2)C(=O)N[C@@H](Cc2ccc(-c3ccncc3)cc2)C(=O)N[C@H](Cc2ccccc2)C(=O)N[C@H](C(=O)N[C@@H](Cc2ccccc2)C(=O)O)Cc2ccc(cc2)N1 [Compound 426] ([d(hPhe)][Phe(4-(4-pyridyl))][dF][Phe(4-NH2)]F-OH; linker N-4 via Suc)			0.90 ± 0.15 mL	1.11 ± 0.18 mL	1.11 ± 0.23 mL								< 10 µM	10 to 50%	10 to 50%			
O=C1COc2ccc(cc2)C[C@@H](C(=O)N[C@@H](CCc2ccccc2)C(=O)O)NC(=O)[C@H](Cc2ccccc2)NC(=O)[C@@H](Cc2ccc(-c3ccccc3)cc2)NC(=O)[C@H](Cc2cccs2)N1 [Compound 393]	10 to 50%	> 80%							< 10 µM	1.27 ± 0.07 mL	1.28 ± 0.08 mL	1.42 ± 0.12 mL				1.24 ± 0.18 mL	1.54 ± 0.25 mL	1.56 ± 0.17 mL
